The target of series [1] is T1, rat-species vanilloid receptor 1 (VR1/TRPV1) (Rattus norvegicus, UniProt O35433).
T1 construct: endogenous in cells; host or cells: primary cells dissociated from rat dorsal root ganglia (DRG)
The experiment in a line: Functional testing on vanilloid receptor 1 (VR1/TRPV1): FLIPR Ca2+ inflow assay in rat dorsal root ganglia cells (% activation / % inhibition vs capsaicin). Particulars: for inhibition at 10 µM: inhibition compared to 10 μM CP (capsaicin); for activation at 10 µM: stimulation compared to 10 μM CP (capsaicin); for IC50: capsaicin (CAP) stimulus, average. It is filed as cell-based. The method, boiled down: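 Rat dorsal root ganglion cells, dissociated with collagenase and trypsin, were plated at 3×10^5/mL on laminin-coated plates in NGF-containing HAMS F12 and cultured 2-3 days at 37° C. Ca2+ inflow read by Fluo-4 fluorescence on FLIPR; test compounds at 10 μM referenced to 10 μM capsaicin.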

The target in the next series is T2, vanilloid receptor (VR1) (Homo sapiens, UniProt Q8NER1).
T2 construct: expressed in transfected cells; host or cells: CHO K1 cells (ECACC), stably transfected
Kind of series: Functional testing on vanilloid receptor (VR1): FLIPR Ca2+ inflow assay in CHO K1 cells stably transfected with the VR1 gene. It is filed as cell-based. Particulars: for inhibition at 10 µM: CHO-K1, inhibition compared to 10 μM CP (capsaicin); for activation at 10 µM: CHO-K1, stimulation compared to 10 μM CP (capsaicin); for IC50: capsaicin (CAP) stimulus, average. The method, boiled down: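 CHO K1 cells stably expressing VR1, loaded with Fluo-4 (2 μM, 30 min, 37° C); peak Ca²⁺ fluorescence read on FLIPR. Compound (10 μM) added first, agonism as % of 10 μM capsaicin signal; after 5 min, 100 nM capsaicin added, % inhibition calculated relative to maximal inhibition with 10 μM capsaicin.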

T2 sequence (Q8NER1 whole entry): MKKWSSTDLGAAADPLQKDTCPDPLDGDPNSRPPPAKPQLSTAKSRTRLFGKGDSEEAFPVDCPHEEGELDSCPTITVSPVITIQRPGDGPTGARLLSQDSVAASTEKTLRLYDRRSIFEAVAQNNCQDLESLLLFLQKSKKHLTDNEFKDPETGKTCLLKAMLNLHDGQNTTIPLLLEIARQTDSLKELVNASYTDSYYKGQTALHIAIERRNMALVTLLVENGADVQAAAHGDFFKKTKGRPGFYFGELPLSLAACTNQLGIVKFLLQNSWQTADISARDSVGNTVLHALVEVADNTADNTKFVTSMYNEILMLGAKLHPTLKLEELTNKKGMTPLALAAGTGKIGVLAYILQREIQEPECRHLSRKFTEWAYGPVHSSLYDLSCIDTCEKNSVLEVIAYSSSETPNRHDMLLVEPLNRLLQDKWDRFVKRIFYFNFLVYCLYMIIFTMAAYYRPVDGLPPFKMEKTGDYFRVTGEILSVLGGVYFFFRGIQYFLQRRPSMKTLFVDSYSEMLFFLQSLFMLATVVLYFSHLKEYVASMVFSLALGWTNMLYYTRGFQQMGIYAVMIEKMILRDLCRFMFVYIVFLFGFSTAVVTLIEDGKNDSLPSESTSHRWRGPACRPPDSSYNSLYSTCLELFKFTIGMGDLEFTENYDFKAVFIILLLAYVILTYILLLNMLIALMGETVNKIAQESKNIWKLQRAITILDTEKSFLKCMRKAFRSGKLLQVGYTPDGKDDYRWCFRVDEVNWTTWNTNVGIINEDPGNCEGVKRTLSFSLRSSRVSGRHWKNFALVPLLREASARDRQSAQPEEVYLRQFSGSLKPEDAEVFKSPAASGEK
T1 sequence (O35433 whole entry): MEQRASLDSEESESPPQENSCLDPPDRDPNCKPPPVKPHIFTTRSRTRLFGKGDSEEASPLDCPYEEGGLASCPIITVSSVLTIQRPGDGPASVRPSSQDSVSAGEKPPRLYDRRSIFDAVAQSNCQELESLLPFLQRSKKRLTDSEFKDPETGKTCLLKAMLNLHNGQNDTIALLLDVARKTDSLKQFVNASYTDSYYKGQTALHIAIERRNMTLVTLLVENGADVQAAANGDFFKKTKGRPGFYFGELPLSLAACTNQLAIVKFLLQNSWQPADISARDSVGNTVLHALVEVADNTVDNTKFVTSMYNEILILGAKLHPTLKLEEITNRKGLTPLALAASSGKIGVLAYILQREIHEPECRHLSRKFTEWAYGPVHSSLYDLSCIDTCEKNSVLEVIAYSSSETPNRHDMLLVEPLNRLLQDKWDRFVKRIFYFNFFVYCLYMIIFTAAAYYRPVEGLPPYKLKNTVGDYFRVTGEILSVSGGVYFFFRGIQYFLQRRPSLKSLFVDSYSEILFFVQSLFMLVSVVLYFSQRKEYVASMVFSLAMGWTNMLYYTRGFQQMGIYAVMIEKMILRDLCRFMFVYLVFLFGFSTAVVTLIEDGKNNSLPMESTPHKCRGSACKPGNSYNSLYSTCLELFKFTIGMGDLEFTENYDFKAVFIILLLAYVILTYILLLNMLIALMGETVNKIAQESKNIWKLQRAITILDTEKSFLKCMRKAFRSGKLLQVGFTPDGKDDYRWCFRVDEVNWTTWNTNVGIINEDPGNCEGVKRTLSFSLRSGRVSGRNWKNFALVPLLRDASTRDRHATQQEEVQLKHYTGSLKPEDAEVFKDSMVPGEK

For the compound `CC(C)(C)c1ccc(/C=C/C(=O)N2CCC3(CC2)CC(c2cccc(F)c2)=NO3)cc1` [Compound 353, (E)-3-(4-tert-butylphenyl)-1-(3-(3-fluorophenyl)-1-oxa-2,8-diazaspiro[4.5]dec-2-en-8-yl)prop-2-en-1-one], the values for the inhibition at 10 µM (in series [1]; against vanilloid receptor (VR1)) were 84% and 23%, respectively. For the same compound, the activation at 10 µM (in series [1]; at vanilloid receptor (VR1)) was 0% each time.
Take `O=C(/C=C/c1ccc(C(F)(F)F)nc1N1CCCCC1)N1CCC2(CC1)CC(c1ccccc1)=NO2` [Compound 355, (E)-1-(3-phenyl-1-oxa-2,8-diazaspiro[4.5]dec-2-en-8-yl)-3-(2-(piperidin-1-yl)-6-(trifluoromethyl)pyridin-3-yl)prop-2-en-1-one]: in series [1], the inhibition (usually the relative decrease from the control value, in per cent) at 10 µM came out at 98% and the activation at 10 µM amounted to 0%. Further, on vanilloid receptor (VR1), the inhibition at 10 µM was determined as 63% and the activation at 10 µM came out at 0%.
Take `O=C(/C=C/c1ccc(C(F)(F)F)nc1N1CCCCC1)N1CCC2(CC1)CC(c1cccc(Cl)c1)=NO2` [Compound 356, (E)-1-(3-(3-chlorophenyl)-1-oxa-2,8-diazaspiro[4.5]dec-2-en-8-yl)-3-(2-(piperidin-1-yl)-6-(trifluoromethyl)pyridin-3-yl)prop-2-en-1-one]: in series [1], the inhibition at 10 µM is 88% and the activation at 10 µM came out at 0%. Besides, at vanilloid receptor (VR1), the inhibition at 10 µM turned out to be 52% and the activation at 10 µM is 0%.
Take `CC(C)(C)c1ccc(C(/C=C/c2ccccc2)=C/C(=O)N2CCC3(CC2)CC(c2cccc(F)c2)=NO3)cc1` [Compound 358, (2E,4E)-3-(4-tert-butylphenyl)-1-(3-(3-fluorophenyl)-1-oxa-2,8-diazaspiro[4.5]dec-2-en-8-yl)-5-phenylpenta-2,4-dien-1-one]: in series [1], it took 148 nM to reach half-maximal inhibition (IC50), the inhibition at 10 µM amounted to 95% and the activation at 10 µM came to 0%. For the same compound, on vanilloid receptor (VR1), the inhibition at 10 µM was 41%, the activation at 10 µM stood at 0% and inhibition was half-maximal at 1110 nM (IC50).
For `CC(C)(C)c1ccc(/C(=C/C(=O)N2CCC3(CC2)CC(c2ccccc2F)=NO3)c2ccc(Cl)c(Cl)c2)cc1` [Compound 359, (Z)-3-(4-tert-butylphenyl)-3-(3,4-dichlorophenyl)-1-(3-(2-fluorophenyl)-1-oxa-2,8-diazaspiro[4.5]dec-2-en-8-yl)prop-2-en-1-one], in series [1], the inhibition at 10 µM was 57% and the activation at 10 µM came to 3%. Besides, on vanilloid receptor (VR1), the inhibition at 10 µM is 26% and the activation at 10 µM came to 0%.
The like results for `CC(C)(C)c1ccc(/C(=C/C(=O)N2CCC3(CC2)CC(c2cccc(F)c2)=NO3)c2ccc(Cl)c(Cl)c2)cc1` [Compound 360, (Z)-3-(4-tert-butylphenyl)-3-(3,4-dichlorophenyl)-1-(3-(3-fluorophenyl)-1-oxa-2,8-diazaspiro[4.5]dec-2-en-8-yl)prop-2-en-1-one] were, in that order, 80%, 3%, 12% and 0%.
With `COc1cccc(C2=NOC3(CCN(C(=O)C#Cc4ccc(C(F)(F)F)cc4)CC3)C2)c1` [Compound 361, 1-(3-(3-methoxyphenyl)-1-oxa-2,8-diazaspiro[4.5]dec-2-en-8-yl)-3-(4-(trifluoromethyl)phenyl)prop-2-yn-1-one], in series [1], the inhibition at 10 µM worked out at 58% and the activation at 10 µM came out at 0%. In addition, on vanilloid receptor (VR1), the inhibition at 10 µM was found to be 12% and the activation at 10 µM was 0%.
For the compound `COc1cccc(C2=NOC3(CCN(C(=O)/C=C/c4ccc(C(F)(F)F)nc4)CC3)C2)c1` [Compound 362, (E)-1-(3-(3-methoxyphenyl)-1-oxa-2,8-diazaspiro[4.5]dec-2-en-8-yl)-3-(6-(trifluoromethyl)pyridin-3-yl)prop-2-en-1-one], the inhibition at 10 µM in series [1] amounted to 44%; at vanilloid receptor (VR1), 19%. Also, the figures for the activation at 10 µM (in series [1]; at vanilloid receptor (VR1)) were -1% and 0%, respectively.
The like results for `O=C(C#Cc1ccc(C(F)(F)F)cc1)N1CCC2(CC1)CC(c1ccccc1)=NO2` [Compound 363, 1-(3-phenyl-1-oxa-2,8-diazaspiro[4.5]dec-2-en-8-yl)-3-(4-(trifluoromethyl)phenyl)prop-2-yn-1-one] were, in that order, 81%, 30%, 0% and 0%.
As for `CC1CN(C(=O)Nc2ccc(C(C)(C)C)cc2)CCC12CC(c1ccccc1F)=NO2` (stereo not drawn) [Compound 364, N-(4-tert-butylphenyl)-3-(2-fluorophenyl)-6-methyl-1-oxa-2,8-diazaspiro[4.5]dec-2-ene-8-carboxamide], the inhibition at 10 µM in series [1] turned out to be 106%; at vanilloid receptor (VR1), 50%. Further, the figures for the activation at 10 µM (in series [1]; on vanilloid receptor (VR1)) were 4% and -1%, respectively.
Consider `O=C(/C=C/c1ccc(C(F)(F)F)nc1N1CCCCC1)N1CCC2(CC1)CC(c1cccc(F)c1)=NO2` [Compound 365, (E)-1-(3-(3-fluorophenyl)-1-oxa-2,8-diazaspiro[4.5]dec-2-en-8-yl)-3-(2-(piperidin-1-yl)-6-(trifluoromethyl)pyridin-3-yl)prop-2-en-1-one], for which, in series [1], the inhibition at 10 µM is 94% and the activation at 10 µM came to 0%. Further, at vanilloid receptor (VR1), the inhibition at 10 µM was 74% and the activation at 10 µM was -1%.
Regarding `CC(C(=O)N1CCC2(CC1)CC(c1cccc(F)c1)=NO2)c1ccc(NS(C)(=O)=O)c(F)c1` (stereo not drawn) [Compound 366, N-(2-fluoro-4-(1-(3-(3-fluorophenyl)-1-oxa-2,8-diazaspiro[4.5]dec-2-en-8-yl)-1-oxopropan-2-yl)phenyl)methanesulphonamide], in series [1], the inhibition at 10 µM came to 29% and the activation at 10 µM is 0%. In addition, at vanilloid receptor (VR1), the inhibition at 10 µM was -20% and the activation at 10 µM was -1%.
The matching figures for `CC1CN(C(=O)/C=C/c2ccc(C(F)(F)F)nc2N2CCCCC2)CCC12CC(c1ccccc1)=NO2` (stereo not drawn) [Compound 367, (E)-1-(6-methyl-3-phenyl-1-oxa-2,8-diazaspiro[4.5]dec-2-en-8-yl)-3-(2-(piperidin-1-yl)-6-(trifluoromethyl)pyridin-3-yl)prop-2-en-1-one]: 96%, -1%, 93% and 0%.
The matching figures for `CC(C)(C)c1ccc(/C=C/C(=O)N2CCC3(CC2)CC(c2ccccc2)=NO3)c(Br)c1` [Compound 368, (E)-3-(2-bromo-4-tert-butylphenyl)-1-(3-phenyl-1-oxa-2,8-diazaspiro[4.5]dec-2-en-8-yl)prop-2-en-1-one]: 83%, 0%, 66% and 0%.
Take `CC1CN(C(=O)Nc2ccc(C(C)(C)C)cc2)CCC12CC(c1ccccc1)=NO2` (stereo not drawn) [Compound 369, N-(4-tert-butylphenyl)-6-methyl-3-phenyl-1-oxa-2,8-diazaspiro[4.5]dec-2-ene-8-carboxamide]: in series [1], the IC50 (in general, the concentration that inhibits the measured activity by half) amounted to 175 nM; the inhibition at 10 µM turned out to be 110%; the activation at 10 µM came to 0%. At vanilloid receptor (VR1), the inhibition at 10 µM is 19%, the activation at 10 µM is -1% and inhibition was half-maximal at 1070 nM (IC50).
In the case of `CC(C)(C)c1ccc(NC(=O)N2CCC3(CC(c4ccccc4)=NO3)C2)cc1` (stereo not drawn) [Compound 371, N-(4-tert-butylphenyl)-3-phenyl-1-oxa-2,7-diazaspiro[4.4]non-2-ene-7-carboxamide], the inhibition at 10 µM in series [1] is 99%; on vanilloid receptor (VR1) it was 12%. Also, the results for the activation at 10 µM (in series [1]; on vanilloid receptor (VR1)) were 35% and 1%, respectively.
For `COc1cc(C2=NOC3(CCN(C(=O)Nc4ccc(C(C)(C)C)cc4)CC3)C2)ccc1Cl` [Compound 378, N-(4-tert-butylphenyl)-3-(4-chloro-3-methoxyphenyl)-1-oxa-2,8-diazaspiro[4.5]dec-2-ene-8-carboxamide], in series [1], the inhibition at 10 µM came out at 99% and the activation at 10 µM is 33%. In addition, on vanilloid receptor (VR1), the inhibition at 10 µM was 81% and the activation at 10 µM was found to be 42%.
On to `CC(C)(C)c1ccc2[nH]c(N3CCC4(CC3)CC(c3ccccc3)=NO4)nc2c1` [Compound 379, 8-(5-tert-butyl-1H-benzimidazol-2-yl)-3-phenyl-1-oxa-2,8-diazaspiro[4.5]dec-2-ene], for which the melting point (in general, the temperature, or range, at which the solid turns liquid) fell in the range of 230 to 236 °C.
For the compound `CC1CN(C(=O)Nc2ccc(C(F)(F)F)cc2)CCC12CC(c1ccccc1)=NO2` (stereo not drawn) [Compound 385, 6-methyl-3-phenyl-N-(4-(trifluoromethyl)phenyl)-1-oxa-2,8-diazaspiro[4.5]dec-2-ene-8-carboxamide], in series [1], half-maximal inhibition (IC50) was put at 59.8 nM, the inhibition at 10 µM turned out to be 77% and the activation at 10 µM came to 1%. Also, on vanilloid receptor (VR1), the inhibition at 10 µM is 18% and the activation at 10 µM was -2%.

(Values after patent publication US8772307B2, “Substituted spiro compounds and their use for producing pain-relief medicaments” (Gruenenthal GmbH, priority 2005, dated 2014).)
